Results published in US20220151921A1, “MONOCYTE-SELECTIVE DRUG DELIVERY SYSTEM USING SINGLE-WALLED CARBON NANOTUBES TO INDUCE EFFEROCYTOSIS” (The Board of Trustees of the Leland Stanford Junior …, priority 2019, published 2022).
pIC50: −log10 of the molar value.

How the values were obtained:
SHP-1 = SHP-1 (Homo sapiens, UniProt P29350); settings: cited from earlier work
TPI release assay = type: physicochemical; settings: PBS pH 5.5 and 6.5, carbonate buffer pH 9, through day 7
Method: TPI release Assay. We conducted assays to evaluate TPI release from SWNTs in carbonate buffer (pH 9) and PBS buffer (pH 6.5 and 5.5). SWNT-TPI (200 μL, 16.5 TPI molecules/SWNT on average) was added to MINI Dialysis Devices (MWCO: 20K) and the volume of release medium was 3 mL. At fixed timepoints from 1 day to 7 days, 2 μL of the outlet medium was removed to test the rate of TPI release. The cumulative drug release (CDR) percentage was calculated by the following equation: CDR (%)=Wreleased/Wloaded×100% Here, CDR represents the cumulative drug release percentage, Wreleased represents the mass of released TPI in the release media, Wloaded represents the total mass of TPI. TPI release in serum (20% Fetal Bovine Serum (FBS) in Phosphate-buffered saline (PBS)): the timepoints, sample volume, and calculation methods were identical to the above.

RAW 264.7 cells = experiment: Cell proliferation assay (modified MTT); type: cell-based, murine
Method: Cell Proliferation Assay. A modified MTT (3-[4,5-dimethyl-thiazol-2-yl]-2,5-diphenyltetrazolium bromide) assay was performed to analyze macrophage proliferation. RAW 264.7 cells were plated at 25,000 cells/well in a 96-well plate grown overnight at 37°C., and serum-starved for the next 24 hrs. Cells were stimulated with 10% FBS for 24 hrs with SWNTs (4 nM), SWNT-TPI (TPI: 25 nM and 50 nM), or TPI (25 nM), and then incubated with 10 μL of MTT AB solution (Millipore, Billerica) for 2 hr. 100 μL of acidic isopropanol (0.04N HCl) was added to each well and the absorbance was measured at 570 nm (reference wavelength 650 nm) on an ELISA plate reader a SpectraMax 190 Microplate Reader (Molecular Devices). Statistical analysis Statistical differences were determined by one-way ANOVA, and results were expressed as means±SE. p-value<0.05 and p-value<0.01 were considered to indicate statistical significance. Statistical analyses were performed using GraphPad Prism 7 (GraphPad Inc.).

SHP-1, sequence (P29350 whole entry): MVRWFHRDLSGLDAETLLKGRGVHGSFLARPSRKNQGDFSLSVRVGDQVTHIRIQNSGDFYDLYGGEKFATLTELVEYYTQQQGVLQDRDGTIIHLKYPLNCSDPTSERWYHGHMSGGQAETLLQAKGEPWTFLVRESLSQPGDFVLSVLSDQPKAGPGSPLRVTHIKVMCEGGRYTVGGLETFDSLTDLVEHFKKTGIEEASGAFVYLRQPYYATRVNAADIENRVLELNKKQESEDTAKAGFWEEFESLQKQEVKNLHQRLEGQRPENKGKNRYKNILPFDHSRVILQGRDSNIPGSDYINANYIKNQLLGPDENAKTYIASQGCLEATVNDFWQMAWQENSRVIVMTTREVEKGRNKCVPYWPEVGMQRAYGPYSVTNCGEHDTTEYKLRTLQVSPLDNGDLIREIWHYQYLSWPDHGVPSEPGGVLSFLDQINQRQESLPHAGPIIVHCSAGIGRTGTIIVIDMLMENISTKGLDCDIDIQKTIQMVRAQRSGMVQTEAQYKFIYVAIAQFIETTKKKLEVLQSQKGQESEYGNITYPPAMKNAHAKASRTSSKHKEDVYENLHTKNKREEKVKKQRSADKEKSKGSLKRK

Structure (SMILES) | pIC50 (SHP-1) | TPI release from SWNTs in saline buffers (TPI release assay) | RAW cell proliferation (RAW 264.7 cells) | selectivity for SHP-1 over SHP-2 (SHP-1) | effectiveness as SHP-1 inhibitor relative to sodium stibogluconate (SHP-1; versus sodium stibogluconate)
O=S(=O)(O)c1ccc2cc(N=Nc3cc(S(=O)(=O)O)c4cccnc4c3O)ccc2c1 [NSC87877] | 6.45 |  |  |  | 
O=C1C=CC(=O)C(c2cc(Cl)ccc2Cl)=C1 [TPI, 2-(2,5-dichlorophenyl)-2,5-cyclohexadiene-1,4-dione] | 7.40 | accelerated by progressively more acidic conditions | no significant effect | selective toward SHP-1 | over two orders of magnitude
